Activity calls are given as the source filed them. No cut-off for these calls is given here.
Assays:
[1] = target: T1, Epidermal growth factor receptor (Homo sapiens, UniProt P00533); conditions: 20 uM
[2] = target: Epidermal growth factor receptor (Homo sapiens, UniProt P00533, L858R/T790M)
[3] = target: T1, Epidermal growth factor receptor
[4] = Antiproliferative activity against human HCC827 cells by MTS assay
[5] = target: T1, Epidermal growth factor receptor; assay: Inhibition of EGFR at 20 uM
[6] = system: Epidermal growth factor receptor (Homo sapiens), P00533 [L858R,T790M]; conditions: 10 uM
[7] = system: Rattus norvegicus; assay: Half life in Sprague-Dawley rat at 5 mg/kg, iv; assay type: ADME, organism-based; set-up: dose 5 mg/kg, route intravenous; conditions: in vivo
[8] = AUC (0 to infinity) in Sprague-Dawley rat at 5 mg/kg, iv; assay type: ADME, organism-based; set-up: time infinity, dose 5 mg/kg, route intravenous; conditions: plasma
[9] = system: HCC827; assay: Antitumor activity against human HCC827 cells xenografted in mouse assessed as reduction of tumor growth at 5 to 15 mg/kg, iv for 5 days a week measured after 2 weeks; assay type: functional, organism-based
[10] = system: HCC827; assay: Antitumor activity against human HCC827 cells xenografted in mouse assessed as reduction of tumor growth at 100 mg/kg, iv for 5 days a week measured after 2 weeks; assay type: functional, organism-based; set-up: dose 100 mg/kg

Sequence of Epidermal growth factor receptor (Homo sapiens, UniProt P00533, L858R/T790M) (P00533 25-1210 T790M/L858R limits assumed): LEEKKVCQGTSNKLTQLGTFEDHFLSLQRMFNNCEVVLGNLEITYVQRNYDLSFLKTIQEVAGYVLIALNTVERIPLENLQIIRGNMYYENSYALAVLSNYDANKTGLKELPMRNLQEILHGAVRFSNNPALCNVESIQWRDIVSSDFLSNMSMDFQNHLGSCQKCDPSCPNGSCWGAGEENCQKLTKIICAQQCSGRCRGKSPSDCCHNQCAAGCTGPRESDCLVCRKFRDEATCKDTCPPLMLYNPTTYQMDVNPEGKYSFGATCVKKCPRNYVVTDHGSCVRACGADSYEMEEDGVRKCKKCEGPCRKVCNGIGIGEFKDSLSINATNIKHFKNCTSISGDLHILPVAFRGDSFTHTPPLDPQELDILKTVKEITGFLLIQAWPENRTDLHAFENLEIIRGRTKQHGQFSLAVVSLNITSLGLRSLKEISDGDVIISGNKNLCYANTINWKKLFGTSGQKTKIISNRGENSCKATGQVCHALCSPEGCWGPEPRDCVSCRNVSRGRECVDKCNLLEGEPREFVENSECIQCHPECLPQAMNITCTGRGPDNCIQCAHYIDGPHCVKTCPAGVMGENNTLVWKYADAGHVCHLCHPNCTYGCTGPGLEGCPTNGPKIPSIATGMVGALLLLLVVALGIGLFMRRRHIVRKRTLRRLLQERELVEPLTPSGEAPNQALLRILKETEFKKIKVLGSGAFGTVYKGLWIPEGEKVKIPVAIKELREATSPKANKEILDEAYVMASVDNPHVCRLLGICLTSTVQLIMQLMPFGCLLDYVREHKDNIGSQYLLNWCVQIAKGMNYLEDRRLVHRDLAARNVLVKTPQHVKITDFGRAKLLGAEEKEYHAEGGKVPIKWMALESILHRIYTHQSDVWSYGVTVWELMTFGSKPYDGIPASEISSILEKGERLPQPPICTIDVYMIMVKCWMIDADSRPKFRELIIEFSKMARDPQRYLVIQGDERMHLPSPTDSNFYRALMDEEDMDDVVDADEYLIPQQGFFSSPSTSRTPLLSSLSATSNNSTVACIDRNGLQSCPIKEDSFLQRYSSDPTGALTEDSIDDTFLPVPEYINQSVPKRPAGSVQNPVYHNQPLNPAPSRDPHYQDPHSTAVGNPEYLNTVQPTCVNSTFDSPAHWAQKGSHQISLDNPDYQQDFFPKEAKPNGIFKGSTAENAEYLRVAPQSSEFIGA
T1 sequence (P00533 whole entry): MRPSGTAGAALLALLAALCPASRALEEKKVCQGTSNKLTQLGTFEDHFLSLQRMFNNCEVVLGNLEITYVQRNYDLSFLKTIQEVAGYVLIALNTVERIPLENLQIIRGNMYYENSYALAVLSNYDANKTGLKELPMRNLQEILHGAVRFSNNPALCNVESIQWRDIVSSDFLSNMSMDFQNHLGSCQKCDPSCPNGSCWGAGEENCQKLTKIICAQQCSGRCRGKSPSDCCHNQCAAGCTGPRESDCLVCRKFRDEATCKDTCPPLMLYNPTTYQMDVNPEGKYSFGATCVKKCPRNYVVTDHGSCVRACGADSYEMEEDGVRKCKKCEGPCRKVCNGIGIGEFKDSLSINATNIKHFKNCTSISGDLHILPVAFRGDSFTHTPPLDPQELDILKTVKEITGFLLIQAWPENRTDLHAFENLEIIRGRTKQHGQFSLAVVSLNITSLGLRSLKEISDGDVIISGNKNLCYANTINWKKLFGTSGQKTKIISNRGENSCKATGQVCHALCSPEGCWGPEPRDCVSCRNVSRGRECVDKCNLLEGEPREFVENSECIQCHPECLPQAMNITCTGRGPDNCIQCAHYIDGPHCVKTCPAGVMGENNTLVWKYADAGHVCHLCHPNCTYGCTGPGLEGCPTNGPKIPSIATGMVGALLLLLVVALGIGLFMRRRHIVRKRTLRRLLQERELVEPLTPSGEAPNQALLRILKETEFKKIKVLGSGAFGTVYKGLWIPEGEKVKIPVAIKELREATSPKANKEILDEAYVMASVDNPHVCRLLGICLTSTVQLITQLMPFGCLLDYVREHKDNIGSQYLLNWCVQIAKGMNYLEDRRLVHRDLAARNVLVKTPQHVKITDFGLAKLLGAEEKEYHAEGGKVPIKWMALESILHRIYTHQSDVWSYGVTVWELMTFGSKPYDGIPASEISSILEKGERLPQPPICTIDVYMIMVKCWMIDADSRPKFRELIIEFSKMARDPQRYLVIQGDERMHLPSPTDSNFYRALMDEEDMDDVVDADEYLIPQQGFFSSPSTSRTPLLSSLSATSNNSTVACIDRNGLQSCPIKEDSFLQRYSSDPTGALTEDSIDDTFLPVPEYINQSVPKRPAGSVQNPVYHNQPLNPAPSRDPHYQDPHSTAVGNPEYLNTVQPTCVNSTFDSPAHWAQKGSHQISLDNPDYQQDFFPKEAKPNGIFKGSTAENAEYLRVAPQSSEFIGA
Sequence of Epidermal growth factor receptor (Homo sapiens), P00533 [L858R,T790M] (P00533 whole entry T790M/L858R, looked up): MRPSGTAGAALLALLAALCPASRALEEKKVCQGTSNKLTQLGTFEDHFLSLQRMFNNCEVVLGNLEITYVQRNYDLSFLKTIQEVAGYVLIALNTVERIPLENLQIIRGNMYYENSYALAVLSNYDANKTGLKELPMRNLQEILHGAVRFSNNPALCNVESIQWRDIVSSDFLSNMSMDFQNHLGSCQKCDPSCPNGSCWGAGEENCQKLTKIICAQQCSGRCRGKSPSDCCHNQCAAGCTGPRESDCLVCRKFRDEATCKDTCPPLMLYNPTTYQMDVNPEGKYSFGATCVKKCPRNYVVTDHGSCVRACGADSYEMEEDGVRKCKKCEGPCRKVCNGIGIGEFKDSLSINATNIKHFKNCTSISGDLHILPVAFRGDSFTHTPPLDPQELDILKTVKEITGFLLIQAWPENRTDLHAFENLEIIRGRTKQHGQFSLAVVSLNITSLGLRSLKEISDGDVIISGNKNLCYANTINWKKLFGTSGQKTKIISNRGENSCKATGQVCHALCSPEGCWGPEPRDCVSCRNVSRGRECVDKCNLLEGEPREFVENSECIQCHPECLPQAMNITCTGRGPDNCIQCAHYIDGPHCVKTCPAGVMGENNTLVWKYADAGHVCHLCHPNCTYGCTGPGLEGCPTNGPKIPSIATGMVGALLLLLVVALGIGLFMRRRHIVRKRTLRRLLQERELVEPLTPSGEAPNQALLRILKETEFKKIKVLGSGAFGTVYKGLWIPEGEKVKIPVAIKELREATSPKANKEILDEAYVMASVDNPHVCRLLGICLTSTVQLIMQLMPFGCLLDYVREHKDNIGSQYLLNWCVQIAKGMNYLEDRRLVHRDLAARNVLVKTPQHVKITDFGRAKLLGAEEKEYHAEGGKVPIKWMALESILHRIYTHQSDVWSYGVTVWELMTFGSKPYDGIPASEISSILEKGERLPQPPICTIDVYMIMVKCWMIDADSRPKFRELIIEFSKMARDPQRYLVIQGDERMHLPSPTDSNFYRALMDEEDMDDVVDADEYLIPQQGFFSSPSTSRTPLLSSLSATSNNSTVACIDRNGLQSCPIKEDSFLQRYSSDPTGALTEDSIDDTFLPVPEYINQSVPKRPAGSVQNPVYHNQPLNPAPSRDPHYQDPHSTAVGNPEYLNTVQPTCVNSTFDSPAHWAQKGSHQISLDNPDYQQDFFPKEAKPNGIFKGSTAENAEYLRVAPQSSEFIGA

Row | SMILES | IC50 [2] [nM] | IC50 [3] [nM] | IC50 [4] [nM] | inhibition [6] [%] | further results
1 | Fc1ccc(CNc2ncnc3sc4c(c23)CCCC4)cc1 | – | – | – | – | inhibition [1]: 52.7%
2 | C[C@@H](Nc1ncnc2sc3c(c12)CCN(C(=O)/C=C/CN(C)C)C3)c1ccccc1 | 596 | 12 | 2 | – | –
3 | CCC(=O)N1CCc2c(sc3ncnc(N[C@H](CO)c4ccccc4)c23)C1 | – | – | – | < 50 | IC50 [5]: > 20000 nM
4 | c1ccc(CNc2ncnc3sc4c(c23)CCC4)cc1 | – | – | – | – | inhibition [1]: 69.1%
5 | O=C(/C=C/c1ccccc1)N1CCc2c(sc3ncnc(N[C@H](CO)c4ccccc4)c23)C1 | – | 3500 | – | < 50 | –
6 | OC[C@@H](Nc1ncnc2oc(-c3ccccc3)c(-c3ccccc3)c12)c1ccccc1 | – | – | 518 | – | –
7 | CN(C)C/C=C/C(=O)N1CCc2c(sc3ncnc(NC(CO)Cc4ccccc4)c23)C1 (single isomer, unassigned) | 4110 | 149 | 32 | – | –
8 | C=CC(=O)N1CCc2c(sc3ncnc(N[C@H](CO)c4ccccc4)c23)C1 | 100 | 8 | 3 | – | –
9 | C[C@@H](Nc1ncnc2sc3c(c12)CCCC3)c1ccccc1 | – | > 3240 | – | – | –
10 | C=CC(=O)N1CCc2c(sc3ncnc(N[C@H](CC)c4ccccc4)c23)C1 | 2200 | 46 | 24 | – | –
11 | CC#CC(=O)N1CCc2c(sc3ncnc(N[C@H](CO)c4ccccc4)c23)C1 | > 10000 | 1270 | – | < 50 | –
12 | CN(C)C/C=C/C(=O)N1CCc2c(sc3ncnc(N[C@H](CO)c4ccccc4)c23)C1 | 305 | 70 | 2 | – | t1/2 [7]: 1.4 h; AUC(0-inf) [8]: 337 ng·h/mL; Activity [9]: Active
13 | CN(C)C/C=C/C(=O)N1CCc2c(sc3ncnc(NCCO)c23)C1 | – | 4880 | – | < 50 | –
14 | OC[C@@H](Nc1ncnc2sc3c(c12)CCNC3)c1ccccc1 | – | – | – | < 50 | IC50 [5]: > 20000 nM
15 | COc1ccc(CNc2ncnc3sc4c(c23)CCCC4)cc1 | – | – | – | – | inhibition [1]: 1.1%
16 | COc1cc2ncnc(Nc3ccc(F)c(Cl)c3)c2cc1OCCCN1CCOCC1 | – | – | – | – | Activity [10]: Active
17 | OC[C@@H](Nc1ncnc2sc3c(c12)CCC3)c1ccccc1 | – | 1090 | 324 | – | –
18 | c1ccc(CNc2ncnc3sc4c(c23)CCCC4)cc1 | – | – | > 10000 | < 50 | inhibition [1]: 76.9%
19 | C=CS(=O)(=O)N1CCc2c(sc3ncnc(N[C@H](CO)c4ccccc4)c23)C1 | 2480 | 91 | 273 | – | –
20 | O=C(/C=C/CN1CCOCC1)N1CCc2c(sc3ncnc(NC(CO)c4ccccc4)c23)C1 (single isomer, unassigned) | 1400 | 21 | 4 | – | –
21 | c1ccc(CCNc2ncnc3sc4c(c23)CCCC4)cc1 | – | – | – | – | inhibition [1]: 44.3%
22 | OC[C@H](Nc1ncnc2sc3c(c12)CCCC3)c1ccccc1 | – | – | – | – | IC50 [5]: > 20000 nM
23 | C=CC(=O)N1CCc2c(sc3ncnc(N[C@@H](CO)c4ccccc4)c23)C1 | – | 3060 | – | < 50 | –
24 | CCN(CC)C/C=C/C(=O)N1CCc2c(sc3ncnc(NC(CO)c4ccccc4)c23)C1 (single isomer, unassigned) | 930 | 9 | 8 | – | –
25 | CN(C)C/C=C/C(=O)N1CCc2c(sc3ncnc(N[C@@H](CO)c4ccccc4)c23)C1 | – | – | – | < 50 | IC50 [5]: > 20000 nM
26 | CN1CCN(C/C=C/C(=O)N2CCc3c(sc4ncnc(N[C@H](CO)c5ccccc5)c34)C2)CC1 | – | 89 | 38 | < 50 | –
27 | C=CC(=O)N1CCc2c(sc3ncnc(N[C@H](C)c4ccccc4)c23)C1 | 739 | 20 | 19 | – | –
28 | OC[C@@H](Nc1ncnc2sc3c(c12)CCCC3)c1ccccc1 | – | 720 | 198 | < 50 | –
29 | OCCNc1ncnc2sc3c(c12)CCCC3 | – | – | – | – | IC50 [5]: > 20000 nM

Reference: ChEMBL document CHEMBL1269003, “Design and synthesis of tetrahydropyridothieno[2,3-d]pyrimidine scaffold based epidermal growth factor receptor (EGFR) kinase inhibitors: the role of side chain chirality and Michael acceptor group for maximal potency” (J Med Chem, 2010)
